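The compound was tested at five concentrations on cells cultured in 96-well plates, with a 48-hour exposure period. Abbreviation: GI50, concentration required for 50% inhibition of growth.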 Active and inactive are the calls of the source. Cut-off read from the data, not from the text of the source: active = GI50 up to about 1.1 µM and inactive = higher.
How the values were obtained:
Test in all cases: NCI anticancer screen, dose series, 48 h
786-0 = test system: 786-0
A549 = test system: A549
ACHN = test system: ACHN
CAKI-1 = test system: CAKI-1
CCRF-CEM = test system: CCRF-CEM
COLO 205 = test system: COLO 205
DLD-1 = test system: DLD-1
DMS-114 = test system: DMS-114
DMS-273 = test system: DMS-273
EKVX = test system: EKVX
HCC 2998 = test system: HCC 2998
HCT-116 = test system: HCT-116
HCT-15 = test system: HCT-15
HL-60 = test system: HL-60
HOP-62 = test system: HOP-62
HOP-92 = test system: HOP-92
HT-29 = test system: HT-29
IGROV-1 = test system: IGROV-1
K562 = test system: K562
KM-20L2 = test system: KM-20L2
KM12 = test system: KM12
LOX IMVI = test system: LOX IMVI
LXFL 529 = test system: LXFL 529
M14 = test system: M14
M19-MEL = test system: M19-MEL
MOLT-4 = test system: MOLT-4
Malme-3M = test system: Malme-3M
NCI-H226 = test system: NCI-H226
NCI-H23 = test system: NCI-H23
NCI-H460 = test system: NCI-H460
NCI-H522 = test system: NCI-H522
OVCAR-3 = test system: OVCAR-3
OVCAR-4 = test system: OVCAR-4
OVCAR-5 = test system: OVCAR-5
OVCAR-8 = test system: OVCAR-8
RPMI-8226 = test system: RPMI-8226
RXF 393 = test system: RXF 393
RXF 631 = test system: RXF 631
SF-268 = test system: SF-268
SF-295 = test system: SF-295
SF-539 = test system: SF-539
SK-MEL-28 = test system: SK-MEL-28
SK-MEL-2 = test system: SK-MEL-2
SK-MEL-5 = test system: SK-MEL-5
SK-OV-3 = test system: SK-OV-3
SN12C = test system: SN12C
SNB-19 = test system: SNB-19
SNB-75 = test system: SNB-75
SNB-78 = test system: SNB-78
SR = test system: SR
SW-620 = test system: SW-620
TK-10 = test system: TK-10
U-251 = test system: U-251
UACC-257 = test system: UACC-257
UACC-62 = test system: UACC-62
UO-31 = test system: UO-31
XF498 = test system: XF498

With `COC1(OC)C2(Cl)C3=CCCC=C3C1(Cl)C(Cl)=C2Cl` the GI50 (786-0) was 27.4 µM (inactive), the GI50 (A549) was 27.2 µM (inactive) and the GI50 (ACHN) was 28 µM (inactive). For the same compound, the GI50 (CAKI-1) was 18.9 µM (inactive), the GI50 (CCRF-CEM) was 19.8 µM (inactive) and the GI50 (COLO 205) was 18.6 µM (inactive). For the same compound, the GI50 (DLD-1) was 28.9 µM (inactive), the GI50 (DMS-114) was 18.1 µM (inactive) and the GI50 (DMS-273) was 13.3 µM (inactive). The GI50 (EKVX) was 16.1 µM (inactive), the GI50 (HCC 2998) was 29.2 µM (inactive) and the GI50 (HCT-116) was 17.1 µM (inactive). The GI50 (HCT-15) was 27.5 µM, the GI50 (HL-60) was 13.9 µM (inactive) and the GI50 (HOP-62) was 26.3 µM (inactive). For the same compound, the GI50 (HOP-92) was 21.5 µM (inactive), the GI50 (HT-29) was 20.6 µM (inactive) and the GI50 (IGROV-1) was 36.5 µM (inactive). The GI50 (K562) was > 10 µM (inactive), the GI50 (KM-20L2) was 23.2 µM (inactive) and the GI50 (KM12) was 34.3 µM (inactive). The GI50 (LOX IMVI) was 15.3 µM (inactive), the GI50 (LXFL 529) was 25.6 µM (inactive) and the GI50 (M14) was 13.2 µM (inactive). For the same compound, the GI50 (M19-MEL) was 18.8 µM (inactive), the GI50 (MOLT-4) was 18.4 µM (inactive) and the GI50 (Malme-3M) was 16.7 µM (inactive). The GI50 (NCI-H226) was 45.7 µM (inactive), the GI50 (NCI-H23) was 21.9 µM (inactive) and the GI50 (NCI-H460) was 26.5 µM (inactive). The GI50 (NCI-H522) was 12.9 µM (inactive), the GI50 (OVCAR-3) was 17.4 µM (inactive) and the GI50 (OVCAR-4) was 18.2 µM (inactive). The GI50 (OVCAR-5) was 23.7 µM (inactive), the GI50 (OVCAR-8) was 32.2 µM (inactive) and the GI50 (RPMI-8226) was 12.1 µM (inactive). For the same compound, the GI50 (RXF 393) was 13.9 µM (inactive), the GI50 (RXF 631) was 13.2 µM (inactive) and the GI50 (SF-268) was 27.4 µM (inactive). The GI50 (SF-295) was 25.1 µM (inactive), the GI50 (SF-539) was 29 µM (inactive) and the GI50 (SK-MEL-28) was 30.2 µM (inactive). For the same compound, the GI50 (SK-MEL-2) was 16.9 µM (inactive), the GI50 (SK-MEL-5) was 14.3 µM (inactive) and the GI50 (SK-OV-3) was 26 µM (inactive). The GI50 (SN12C) was 28.7 µM (inactive), the GI50 (SNB-19) was 26.1 µM (inactive) and the GI50 (SNB-75) was 23.3 µM (inactive). The GI50 (SNB-78) was 31.8 µM (inactive), the GI50 (SR) was 18.1 µM (inactive) and the GI50 (SW-620) was 17.5 µM (inactive). The GI50 (TK-10) was > 100 µM (inactive), the GI50 (U-251) was 30.3 µM (inactive) and the GI50 (UACC-257) was 28.4 µM (inactive). The GI50 (UACC-62) was 25.5 µM (inactive), the GI50 (UO-31) was 21.7 µM (inactive) and the GI50 (XF498) was 19.2 µM (inactive).

Source: ChEMBL document CHEMBL1201862, “PubChem BioAssay data set” (2004)
